Reference: US12648903B2, “Skin care composition” (BEIERSDORF AG, priority 2019, dated 2026)

Key:
[1] = test system: C. acnes strain C3; experiment: Minimum inhibitory concentration (MIC) of cosmetic excipients, strain C3; format: cell-based, Cutibacterium acnes; conditions: % w/vol, incubated anaerobically 3 days at 37° C., growth scored visually
Protocol: (§1) In microbiology, the MIC is the lowest concentration of a chemical which prevents visible growth of bacterium. The resulted MIC value depends both on the microorganism and the test compound. The MIC is determined by preparing concentrations series of the test compound in vitro, incubating the solutions with the separate batches of cultured bacteria, and measuring the results using agar dilution or broth microdilution. For the experiments with C. acnes strains C3 and K8, media comprising yeast extract soy peptone and dextrose were used. The MIC is determined by turbidity.
(§2) A total of 125 cosmetic excipients were tested for their compatibility with C. acnes strains C3 and K8. Hydrophilic compounds were tested in a 96-well plate liquid broth format, poorly soluble compounds were pre-dissolved in DMSO before dilution in liquid broth and hydrophobic or solid compounds were tested in an agar well diffusion test assay. The different dilutions of the test excipients in media were prepared in Falcon tubes and then distributed in a deep well plate using a multistepper. Each well received 1.2 ml and was subsequently inoculated with 120 μl of C. acnes bacteria suspension (strain C3 and K8). From the deep well plate 200 μl were transferred in each well of a clear 96 well replicate plate. The leftover was discarded. The plates were then incubated anaerobically for 3 days at 37° C. Following incubation, the test plates were visually examined and wells were scored for growth or complete growth inhibition to define the minimum inhibitory concentration.
(§3) These excipients are listed in the below table with their compatibility values for C. acnes strains C3 and K8. The compatibility values represent the MIC value of the listed ingredients with the tested C. acnes strains. At this concentration [% w/vol] the tested compound starts interfering with the growth of the tested strains. The compounds can be used in formulations at concentrations below this concentration.

[2] = test system: C. acnes strain K8; experiment: Minimum inhibitory concentration (MIC) of cosmetic excipients, strain K8; format: cell-based, Cutibacterium acnes; conditions: % w/vol, incubated anaerobically 3 days at 37° C., growth scored visually
Protocol: as §1, §2, §3

Molecule: ethylhexyl cocoate
- COMPATABILITY VALUE C3 [%] (MIC value) [1]: 10.00%
- COMPATABILITY VALUE K8 [%] (MIC value) [2]: 10.00%

Molecule: CC(CO)CO [methylpropanediol]
- COMPATABILITY VALUE C3 [%] (MIC value) [1]: 4.00%
- COMPATABILITY VALUE K8 [%] (MIC value) [2]: 4.00%

Molecule: tocopherol
- COMPATABILITY VALUE C3 [%] (MIC value) [1]: 1.50%
- COMPATABILITY VALUE K8 [%] (MIC value) [2]: 1.50%

Molecule: CCCCCCC(O)CO (centres unmarked) [caprylyl glycol]
- COMPATABILITY VALUE C3 [%] (MIC value) [1]: 0.18%
- COMPATABILITY VALUE K8 [%] (MIC value) [2]: 0.18%
